Data on seven molecules can be found in ChEMBL document CHEMBL1137512, “Synthesis and evaluation of chloromethyl sulfoxides as a new class of selective irreversible cysteine protease inhibitors” (Bioorg Med Chem, 2007).

As usually defined, the Ki is a dissociation constant, usually derived from enzyme kinetics or from competition with a known ligand.

The source made the active and inactive calls. No cut-off for these calls is given here.

The nature of assay [1]: Inhibition of papain by colorimetric assay.
Assay [2] is described as follows: Binding affinity to papain at 10 uM by fluorescent binding test.

For the molecule `CC(C)C[C@@H](C[S+]([O-])CCl)NC(=O)OC(C)(C)C` (stereo partly drawn), the Ki in assay [1] came to 485 µM.
With `CC(C)(C)OC(=O)NCC[S+]([O-])CCl` (stereo not drawn), in assay [1], the outcome was inactive.
`CN(C)c1cccc2c(S(=O)(=O)NCC(=O)NCC[S+]([O-])CCl)cccc12` (stereo not drawn): the Activity in assay [2] amounted to 40%. The molecule also showed a Ki in assay [1] of 471 µM.
`CC(C)(C)OC(=O)N[C@@H](Cc1ccccc1)C[S+]([O-])CCl` (stereo partly drawn): affinity in assay [1] was put at a Ki of 142 µM.
`CC(C)[C@@H](C[S+]([O-])CCl)NC(=O)OC(C)(C)C` (stereo partly drawn) showed a Ki in assay [1] of 543 µM.
Still for that read-out and setting: the same measure for `CC(C)(C)OC(=O)N[C@@H](Cc1ccccc1)C(=O)NCC[S+]([O-])CCl` (stereo partly drawn): 3670 µM; for `C[C@@H](C[S+]([O-])CCl)NC(=O)OC(C)(C)C` (stereo partly drawn): 1430 µM.
